Laboratory results published in patent EP0672658B1, “Antithrombotic agents” (priority 1994, dated 1995).
Counter-ions that a name gives are not always drawn.

What was measured:
human or animal plasma [1] = test: Anticoagulation determination in plasma: thrombin time (TT); type: biochemical; conditions: concentration doubling thrombin time
Experimental: (§1) Dog plasma and rat plasma is obtained from conscious mixed-breed hounds (either sex, Hazelton-LRE, Kalamazoo, Michigan, U.S.A.) or from anesthetized male Sprague-Dawley rats (Harlan Sprague-Dawley, Inc., Indianapolis, Indiana, U.S.A.) by venipuncture into 3.8 percent citrate. Fibrinogen is prepared from in-date ACD human blood as the fraction I-2 according to previous procedures and specifications. Smith, Biochem. J., 185, 1-11 (1980); and Smith, et al., Biochemistry, 11, 2958-2967 (1972). Human fibrinogen is also purchased as 98 percent pure/plasmin free from American Diagnostica, Greenwich, Connecticut. Coagulation reagents ACTIN, Thromboplastin, and Human plasma are from Baxter Healthcare Corp., Dade Division, Miami, Florida. Bovine thrombin from Parke-Davis (Ann Detroit, Michigan) is used for coagulation assays in plasma.
(§2) Coagulation assay procedures are as previously described. Smith, et al., Thrombosis Research, 50, 163-174 (1988). A CoAScreener coagulation instrument (American LABor, Inc.) is used for all coagulation assay measurements. The prothrombin time (PT) is measured by adding 0.05 mL saline and 0.05 mL Thromboplastin-C reagent to 0.05 mL test plasma. The activated partial thromboplastin time (APTT) is measured by incubation of 0.05 mL test plasma with 0.05 mL Actin reagent for 120 seconds followed by 0.05 mL CaCl2 (0.02 M). The thrombin time (TT) is measured by adding 0.05 mL saline and 0.05 mL thrombin (10 NIH units/mL) to 0.05 mL test plasma. The compounds of Formula I are added to human or animal plasma over a wide range of concentrations to determine prolongation effects on the APTT, PT, and TT assays. Linear extrapolations are performed to estimate the concentrations required to double the clotting time for each assay.

human or animal plasma [2] = test: Anticoagulation determination in plasma: prothrombin time (PT); type: biochemical; conditions: concentration doubling prothrombin time
Experimental: as §1, §2

Human Thrombin = Human Thrombin (Homo sapiens, UniProt P00734); test: biochemical; conditions: read-out: Kass Human Thrombin (converted)
factor Xa = factor Xa (Homo sapiens, UniProt P00742); test: biochemical; conditions: read-out: Kass Xa (converted)
Experimental: (§3) By substantially following the procedures described above for human thrombin, and using other human blood coagulation system serine proteases and proteases of the fibrinolytic system with the appropriate chromogenic substrates, identified below, selectivity of the compounds of the present invention with respect to the coagulation factor serine proteases and with respect to the fibrinolytic system serine proteases are evaluated as well as their substantial lack of interference with serine proteases of the fibrinolytic system. Thrombin inhibitors preferably should spare fibrinolysis induced by urokinase, tissue plasminogen activator (t-PA) and streptokinase. This would be important to the therapeutic use of such agents as an adjunct to streptokinase, t-PA or urokinase thrombolytic therapy and to the use of such agents as an endogenous fibrinolysis-sparing (with respect to t-PA and urokinase) antithrombotic agent. In addition to the lack of interference with the amidase activity of the fibrinolytic proteases, such fibrinolytic system sparing can be studied by the use of human plasma clots and their lysis by the respective fibrinolytic plasminogen activators.
(§4) Human factors X, Xa, IXa, XIa, and XIIa are purchased from Enzyme Research Laboratories, South Bend, Indiana; human urokinase from Leo Pharmaceuticals, Denmark; and recombinant activated Protein C (aPC) is prepared at Eli Lilly and Co. substantially according to U.S. Patent 4,981,952. Chromogenic substrates: N-Benzoyl-Ile-Glu-Gly-Arg-p-nitroanilide (for factor Xa); N-Cbz-D-Arg-Gly-Arg-p-nitroanilide (for factor IXa assay as the factor Xa substrate); Pyroglutamyl-Pro-Arg-p-nitroanilide (for Factor XIa and for aPC); H-D-Pro-Phe-Arg-p-nitroanilide (for factor XIIa); and Pyroglutamyl-Gly-Arg-p-nitroanilide (for urokinase); are purchased from KabiVitrum, Stockholm, Sweden, or from Midwest Biotech, Fishers, Indiana. Bovine trypsin is purchased from Worthington Biochemicals, Freehold, New Jersey, and human plasma kallikrein from Kabi Vitrum, Stockholm, Sweden. Chromogenic substrate H-D-Pro-Phe-Arg-p-nitroanilide for plasma kallikrein is purchased from Kabi Vitrum, Stockholm, Sweden. N-Benzoyl-Phe-Val-Arg-p-nitroanilide, the substrate for human thrombin and for trypsin, is synthesized according to procedures described above for the compounds of the present invention, using known methods of peptide coupling from commercially available reactants or purchased from Midwest Biotech, Fishers, Indiana.

human or animal plasma [3] = test: Anticoagulation determination in plasma: activated partial thromboplastin time (APTT); type: biochemical; conditions: concentration doubling activated partial thromboplastin time
Experimental: as §1, §2

Trypsin = molecular target: T1, Trypsin (Bos taurus, UniProt P00760); test: biochemical; parameters: species or system Bovine; conditions: read-out: Kass Trypsin (converted)
T1 sequence (P00760 24-246): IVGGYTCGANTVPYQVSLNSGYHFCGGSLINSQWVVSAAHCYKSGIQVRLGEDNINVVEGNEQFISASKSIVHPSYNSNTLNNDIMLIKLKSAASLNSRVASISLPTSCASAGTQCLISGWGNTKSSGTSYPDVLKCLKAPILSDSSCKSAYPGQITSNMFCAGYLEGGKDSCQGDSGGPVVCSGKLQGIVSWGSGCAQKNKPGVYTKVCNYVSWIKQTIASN
Experimental: as §3, §4

Chain of factor Xa (P00742 235-488 limits assumed): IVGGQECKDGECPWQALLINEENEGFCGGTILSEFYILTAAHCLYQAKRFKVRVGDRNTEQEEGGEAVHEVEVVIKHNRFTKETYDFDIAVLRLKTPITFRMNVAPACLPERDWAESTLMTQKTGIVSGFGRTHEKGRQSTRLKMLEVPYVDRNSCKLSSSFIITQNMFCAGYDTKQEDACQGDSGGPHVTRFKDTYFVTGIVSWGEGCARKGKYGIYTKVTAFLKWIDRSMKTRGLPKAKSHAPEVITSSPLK
Chain of factor Xa (P00742 41-179 partner limits assumed): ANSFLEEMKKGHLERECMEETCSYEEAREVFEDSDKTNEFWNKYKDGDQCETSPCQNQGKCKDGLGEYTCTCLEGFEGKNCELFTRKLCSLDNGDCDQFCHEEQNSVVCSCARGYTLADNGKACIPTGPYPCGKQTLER

N=C(N)c1ccc(CNC(=O)[C@@H]2CCCN2C(=O)[C@H](NCC(=O)O)C2CCCCC2)cc1 [Example 86, HOOCCH2-D-Chg-Pro-p-NHCH2C6H4C(NH)NH2·HCl]
Human Plasma Anticoagulation 2x Clotting time (ng/mL) TT (human or animal plasma [1]): 4 ng/mL | Human Plasma Anticoagulation 2x Clotting time (ng/mL) PT (human or animal plasma [2]): 180 ng/mL | Kd (Human Thrombin): 5 nM | Kd (factor Xa): 1590 nM | Human Plasma Anticoagulation 2x Clotting time (ng/mL) APTT (human or animal plasma [3]): 81 ng/mL

CCC(CC)C(=O)N[C@@H](CCS(C)(=O)=O)C(=O)N1CCC[C@H]1C(=O)NCc1ccc(C(=N)N)cc1 [Example 91, (C2H5)2CHCO-Met(O2)-Pro-p-NHCH2C6H4C(NH)NH2·HCl]
Human Plasma Anticoagulation 2x Clotting time (ng/mL) TT (human or animal plasma [1]): 63 ng/mL | Human Plasma Anticoagulation 2x Clotting time (ng/mL) PT (human or animal plasma [2]): 3,500 ng/mL | Kd (Human Thrombin): 278 nM | Kd (factor Xa): 143000 nM | Human Plasma Anticoagulation 2x Clotting time (ng/mL) APTT (human or animal plasma [3]): 3,000 ng/mL

N=C(N)c1ccc(CNC(=O)CN(CCc2ccccc2)C(=O)CNCC(=O)O)cc1 [Example 89, HOOCCH2-Gly-N-C6H5CH2CH2Gly-p-NHCH2C6H4C(NH)NH2·HCl]
Human Plasma Anticoagulation 2x Clotting time (ng/mL) TT (human or animal plasma [1]): 570 ng/mL | Human Plasma Anticoagulation 2x Clotting time (ng/mL) PT (human or animal plasma [2]): 37,000 ng/mL | Kd (Human Thrombin): 7140 nM | Kd (factor Xa): 14100 nM | Human Plasma Anticoagulation 2x Clotting time (ng/mL) APTT (human or animal plasma [3]): 51,000 ng/mL

CCC(CC)C(=O)N[C@@H](CCC(=O)O)C(=O)N1CCC[C@H]1C(=O)NCc1ccc(C(=N)N)cc1 [Example 90, (C2H5)2CHCO-Glu-Pro-p-NHCH2C6H4C(NH)NH2·HCl]
Human Plasma Anticoagulation 2x Clotting time (ng/mL) TT (human or animal plasma [1]): 330 ng/mL | Human Plasma Anticoagulation 2x Clotting time (ng/mL) PT (human or animal plasma [2]): 14,600 ng/mL | Kd (Human Thrombin): 1640 nM | Kd (factor Xa): 500000 nM | Human Plasma Anticoagulation 2x Clotting time (ng/mL) APTT (human or animal plasma [3]): 14,500 ng/mL

N=C(N)c1ccc(CNC(=O)[C@@H]2CCCN2C(=O)[C@@H](CCC2CCCCC2)NCC(=O)O)cc1 [Example 88, HOOCCH2-D-hCha-Pro-p-NHCH2C6H4C(NH)NH2·HCl]
Human Plasma Anticoagulation 2x Clotting time (ng/mL) TT (human or animal plasma [1]): 4 ng/mL | Human Plasma Anticoagulation 2x Clotting time (ng/mL) PT (human or animal plasma [2]): 200 ng/mL | Kd (Human Thrombin): 2.44 nM | Kd (factor Xa): 256 nM | Human Plasma Anticoagulation 2x Clotting time (ng/mL) APTT (human or animal plasma [3]): 100 ng/mL

N=C(N)c1ccc(CNC(=O)[C@@H]2CCCN2C(=O)[C@@H](CC2CCCCC2)NCC(=O)O)nn1 [Example 69, HO2CCH2-D-Cha-Pro-3-NHCH2-6-amidinopyridazine·HCl]
Human Plasma Anticoagulation 2x Clotting time (ng/mL) TT (human or animal plasma [1]): 5. ng/mL | Human Plasma Anticoagulation 2x Clotting time (ng/mL) PT (human or animal plasma [2]): 220 ng/mL | Kd (Human Thrombin): 2.94 nM | Kd (Trypsin): 270 nM | Human Plasma Anticoagulation 2x Clotting time (ng/mL) APTT (human or animal plasma [3]): 110 ng/mL

N=C(N)c1ccc(CNC(=O)[C@@H]2CCCN2C(=O)[C@@H](CC2CCCCC2)NCC(=O)O)nc1 [Example 66, HO2CCH2-D-Cha-Pro-2-NHCH2-5-amidinopyridine·HCl]
Human Plasma Anticoagulation 2x Clotting time (ng/mL) TT (human or animal plasma [1]): 7.9 ng/mL | Human Plasma Anticoagulation 2x Clotting time (ng/mL) PT (human or animal plasma [2]): 270 ng/mL | Kd (Human Thrombin): 8.33 nM | Kd (Trypsin): 217 nM | Human Plasma Anticoagulation 2x Clotting time (ng/mL) APTT (human or animal plasma [3]): 180 ng/mL

Nc1cc(CCNC(=O)[C@@H]2CCCN2C(=O)[C@@H](CC2CCCCC2)NCC(=O)O)ccn1 [Example 76, HO2CCH2-D-Cha-Pro-4-NHCH2CH2-2-aminopyridine·HCl]
Human Plasma Anticoagulation 2x Clotting time (ng/mL) TT (human or animal plasma [1]): 29 ng/mL | Human Plasma Anticoagulation 2x Clotting time (ng/mL) PT (human or animal plasma [2]): 560 ng/mL | Kd (Human Thrombin): 83.3 nM | Kd (Trypsin): 2780 nM | Human Plasma Anticoagulation 2x Clotting time (ng/mL) APTT (human or animal plasma [3]): 490 ng/mL

N=C(N)c1ccc(CNC(=O)[C@@H]2CCCN2C(=O)[C@@H](CCc2ccccc2)NCC(=O)O)cc1 [Example 87, HOOCCH2-D-hPhe-Pro-p-NHCH2C6H4C(NH)NH2·HCl]
Human Plasma Anticoagulation 2x Clotting time (ng/mL) TT (human or animal plasma [1]): 9 ng/mL | Human Plasma Anticoagulation 2x Clotting time (ng/mL) PT (human or animal plasma [2]): 310 ng/mL | Kd (Human Thrombin): 33.3 nM | Kd (factor Xa): 400 nM | Human Plasma Anticoagulation 2x Clotting time (ng/mL) APTT (human or animal plasma [3]): 260 ng/mL

CCS(=O)(=O)N[C@H](Cc1ccccc1)C(=O)N1CCC[C@H]1C(=O)NCCc1cccc(NC(=N)N)c1 [Example 37, EtSO2-D-Phe-Pro-m-NHCH2CH2C6H4NHC(NH)NH2·HCl]
Human Plasma Anticoagulation 2x Clotting time (ng/mL) TT (human or animal plasma [1]): >9,000 ng/mL | Human Plasma Anticoagulation 2x Clotting time (ng/mL) PT (human or animal plasma [2]): >9,000 ng/mL | Kd (Human Thrombin): 50000 nM | Kd (Trypsin): > 111000 nM | Human Plasma Anticoagulation 2x Clotting time (ng/mL) APTT (human or animal plasma [3]): >9,000 ng/mL
